# Results from the SangsterLogP compilation.
# Experiment: not given
row,logP,Structure (SMILES)
1,2.34,Cc1cc(=O)oc2c1ccc1occc12
2,3.25,Cc1coc2c(C)c3oc(=O)cc(C)c3cc12
3,2.47,Cc1coc2cc3oc(=O)ccc3cc12
4,3.34,Cc1oc2c(C)cc3ccc(=O)oc3c2c1C
5,2.49,Cc1cc2c(ccc3ccc(=O)oc32)o1
6,2.82,Cc1cc(=O)oc2c(C)c3occc3cc12
7,2.92,Cc1cc2occ(C)c2c2oc(=O)ccc12
8,2.79,Cc1cc(=O)oc2c1cc(C)c1occc12
9,2.85,Cc1cc2c(o1)c(C)cc1ccc(=O)oc12
10,2.51,Cc1coc2ccc3ccc(=O)oc3c12
11,2.94,Cc1oc2ccc3ccc(=O)oc3c2c1C
12,2.25,Cc1c(C)c2cc3c(C)coc3nc2oc1=O
13,2.82,Cc1cc2cc3c(C)cc(=O)oc3cc2o1
14,2.66,COc1c2occc2cc2ccc(=O)sc12
15,2.84,Cc1cc2c(C)c3ccc(=O)oc3cc2o1
16,2.88,Cc1cc2ccc(=O)oc2c2c(C)coc12
17,2.19,Cc1oc2nc3oc(=O)ccc3c(C)c2c1C
18,2.76,Cc1coc2cc3oc(=O)cc(C)c3cc12
19,3.23,Cc1c(C)c2cc(C)c3occc3c2oc1=O
20,2.61,O=c1ccc2cc3ccoc3cc2s1
21,3.3,Cc1cc(=O)n(C)c2c1cc(C)c1occ(C)c12
22,2.25,Cc1coc2nc3oc(=O)cc(C)c3c(C)c12
23,3.08,Cc1cc2c(ccc3c(C)cc(=O)n(C)c32)o1
24,2.5,Cc1cc2occc2c2oc(=O)ccc12
25,3.43,Cc1cc2c(o1)c(C)cc1c(C)cc(=O)n(C)c12

# More lines, now with the values behind:
row,Structure (SMILES),logP
1,Cc1sc2c(C)cc3c(C)cc(=O)oc3c2c1C,4.09
2,Cc1oc2ccc3c(C)cc(=O)oc3c2c1C,3.28
3,Cc1cc2ccc3occc3c2oc1=O,2.49
4,Cc1oc2cc3oc(=O)ncc3cc2c1C,1.97
5,Cc1coc2cc3oc(=O)ccc3c(C)c12,2.79
6,Cc1cc2c(ccc3cc(C)c(=O)oc32)o1,2.97
7,Cc1cc(=O)oc2c1cc(C)c1occ(C)c12,3.23
8,Cc1coc2c1c(C)cc1oc(=O)cc(C)c12,3.28
9,Cc1cc2c(cc(C)c3ccc(=O)oc32)o1,2.92
10,Cc1cc2cc3c(C)cc(=O)oc3c(C)c2o1,3.25
11,Cc1cc2c(o1)c(C)cc1c(C)cc(=O)oc12,3.15
12,COc1c2oc(=O)c(C)cc2cc2c(C)c(C)oc12,3.28
13,Cc1oc2cc3oc(=O)ccc3c(C)c2c1C,3.27
14,Cc1cc2c(ccc3c(C)c(C)c(=O)oc32)o1,3.27
15,Cc1cc2c(ccc3c(C)c(C)c(=O)n(C)c32)o1,3.54
16,Cc1coc2c(C)c3oc(=O)ccc3cc12,2.81
17,Cc1c2ccoc2cc2oc(=O)ccc12,2.33
18,Cc1oc2cc3oc(=O)cc(C)c3cc2c1C,3.22
19,O=c1ccc2cc3ccsc3cc2o1,2.27
20,Cc1c(C)c2cc3ccoc3c(C)c2oc1=O,3.25
21,Cc1sc2ccc3c(C)cc(=O)oc3c2c1C,3.65
22,Cc1cc2c(C)cc3oc(=O)cc(C)c3c2o1,3.25
23,Cc1c(C)c2ccc3occ(C)c3c2oc1=O,3.25

row,Structure (SMILES),logP
1,O=c1ccc2ccc3occc3c2[nH]1,1.82
2,Cc1c2occc2cc2ccc(=O)oc12,2.48
3,O=c1ccc2cc3ccsc3cc2s1,2.96
4,Cc1cc2ccc3occ(C)c3c2oc1=O,2.97
5,Cc1cc2cc3ccc(=O)oc3c(C)c2o1,2.93
6,Cc1c(C)c2cc3ccoc3cc2oc1=O,2.77
7,Cc1cc(=O)[nH]c2c1cc(C)c1occ(C)c12,3.13
8,O=c1ccc2ccc3occc3c2s1,2.58
9,Cc1c(C)c2occc2c2oc(=O)ccc12,2.84
10,Cc1oc2c(C)cc3c(C)cc(O)nc3c2c1C,3.5
11,Cc1cc2c(ccc3c(C)cc(=O)oc32)o1,2.79
12,Cc1cc2c(o1)c(C)c(C)c1ccc(=O)oc12,3.26
13,Cc1oc2ccc3c(C)cc(=O)[nH]c3c2c1C,3.18
14,Cc1oc2cc3oc(=O)ccc3cc2c1C,2.93
15,Cc1coc2nc3oc(=O)ccc3c(C)c12,1.73
16,Cc1cc2ccc(=O)oc2c2ccoc12,2.43
17,Cc1c(C)c2cc3c(C)coc3c(C)c2oc1=O,3.62
18,Cc1cc2c(cc(C)c3c(C)cc(=O)oc32)o1,3.36
19,Cc1oc2nc3oc(=O)c(C)c(C)c3cc2c1C,2.71
20,Cc1coc2nc3oc(=O)cc(C)c3cc12,1.82
21,Cc1cc(=O)oc2c1ccc1occ(C)c12,2.81
22,Cc1sc2cc3oc(=O)cc(C)c3cc2c1C,3.48
23,Cc1c2oc(=O)ccc2c(C)c2c(C)coc12,3.35

# Experiment: method code SF-HPLC, from DOI: 10.1002/jps.1029, PMID: 11357176
row,logP,Structure (SMILES)
1,2.08,O=c1ccc2cc3ccoc3cc2o1
2,2.07,COc1c2occc2cc2ccc(=O)oc12
